# Assay results taken from article PMC12501029, “Discovery of a CNS active GSK3 degrader using orthogonally reactive linker screening” (Nature Communications, 2025).
# Tests used:
# GSK3α = molecular target: T1, GSK3α (Homo sapiens, UniProt P49840); test: Immunoblot degradation of endogenous GSK3α in HEK293 cells; format: cell-based; conditions: 10 nM, 2 h
# T1 construct: Endogenous GSK3 paralog degradation with compounds 24 and 26 and negative controls 27 and 28 in HEK293 cells; host or cells: HEK293
# Description: (§1) HEK293, HAP1, HAP1 CRBN KO and SH-SY5Y cells were plated in either 6 cm plates or 6-well plates at varying densities (0.5–0.7 × 10^6 cells per plate or wells), and MEF cells were plated in 10 cm plates (1–1.2 × 10^6 cells per plate) depending on experimental set up in respective culturing condition as described above. Stock solutions of compounds were prepared as 10 mM in DMSO (Sigma–Aldrich). Working dilutions were made up fresh in DMSO and culturing media or differentiation media was refreshed prior to any compound treatments. For mode of action studies, cells were pre-treated with inhibitors for 2 h: 1 µM MG132 (Merck, 474790-5 mg), 1 µM MLN4924 (Merck, 5054770001) or 1 µM GSK3 inhibitor (compound 29), before treating with PROTACs for 2, 4 or 24 h as indicated in figure legends. Cells were washed twice with ice-cold PBS (Gibco), harvested in PBS and pelleted, cells were resuspended in RIPA buffer supplemented with complete EDTA-free protease inhibitor cocktail (Roche,11873580001, 1/10 mL) and phosSTOP (Roche, 04906845001, 1 tablet/10 mL) for 20 min lysis on ice then cleared via centrifugation at 16,000 × g, 4 °C for 20 min. […] Following clearance of lysates, protein concentrations were determined by the BCA assay (Fisher Scientific, 23225) or Bradford assay (Bio-rad). […]
# mouse GSK3β = molecular target: T2, mouse GSK3β (Mus musculus, UniProt Q9WV60); test: Immunoblot degradation in mouse embryonic fibroblast (MEF) cells, 4 h; format: cell-based
# T2 construct: Immunoblotting based endogenous degradation profile of KH1 (24) in mouse embryonic fibroblast (MEF) cells; host or cells: MEF cells
# Description: as §1
# GSK3 = test: Mode of action rescue studies in HEK293 cells (pre-treatment with MG132, MLN4924 or GSK3 inhibitor 29); format: cell-based, human; conditions: 2 h pre-treatment, 1 µM each inhibitor
# Description: as §1
# T1 sequence (P49840 whole entry): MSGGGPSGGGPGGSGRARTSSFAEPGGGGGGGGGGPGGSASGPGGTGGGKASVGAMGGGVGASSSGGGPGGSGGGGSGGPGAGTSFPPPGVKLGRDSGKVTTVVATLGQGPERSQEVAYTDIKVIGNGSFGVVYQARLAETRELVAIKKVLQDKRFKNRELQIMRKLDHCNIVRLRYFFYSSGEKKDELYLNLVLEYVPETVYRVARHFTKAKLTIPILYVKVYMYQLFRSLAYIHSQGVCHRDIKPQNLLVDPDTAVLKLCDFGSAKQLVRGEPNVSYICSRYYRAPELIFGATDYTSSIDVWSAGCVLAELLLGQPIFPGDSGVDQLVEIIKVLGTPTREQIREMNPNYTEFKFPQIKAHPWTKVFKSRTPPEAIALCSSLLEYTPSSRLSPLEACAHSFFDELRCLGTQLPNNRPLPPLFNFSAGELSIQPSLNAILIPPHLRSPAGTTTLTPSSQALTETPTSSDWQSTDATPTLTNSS
# T2 sequence (Q9WV60 whole entry): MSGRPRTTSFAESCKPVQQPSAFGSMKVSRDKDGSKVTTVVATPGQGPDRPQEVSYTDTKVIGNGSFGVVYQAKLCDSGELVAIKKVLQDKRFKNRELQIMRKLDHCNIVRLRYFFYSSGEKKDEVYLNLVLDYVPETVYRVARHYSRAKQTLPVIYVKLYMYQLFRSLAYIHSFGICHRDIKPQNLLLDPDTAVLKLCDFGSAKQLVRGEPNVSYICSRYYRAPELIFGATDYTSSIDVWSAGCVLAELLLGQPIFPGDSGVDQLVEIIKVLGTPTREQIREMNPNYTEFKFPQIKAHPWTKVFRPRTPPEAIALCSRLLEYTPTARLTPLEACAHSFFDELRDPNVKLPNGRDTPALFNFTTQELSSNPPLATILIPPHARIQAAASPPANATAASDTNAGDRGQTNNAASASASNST
Structure (SMILES),endogenous GSK3α degradation (GSK3α),DC50 (mouse GSK3β),"GSK3 degradation in presence of MG132, MLN4924 or GSK3 inhibitor 29 (GSK3)"
Cn1nc(N2CCC(=O)NC2=O)c2ccc(CN3CCN(Cc4ccc(-c5cn(-c6ccc(-c7cn8nccc(C(=O)Nc9cnccc9N9CCOCC9)c8n7)cc6)nn5)nc4)CC3)cc21 [compound 24],almost complete,0.1 to 1 nM,rescued
Cn1nc(N2CCC(=O)NC2=O)c2ccc(CN3CCN(CCCc4cn(-c5ccc(-c6cn7nccc(C(=O)Nc8cnccc8N8CCOCC8)c7n6)cc5)nn4)CC3)cc21 [compound 26],almost complete,–,rescued
